According to US20220195386A1, “COMPOSITIONS AND METHODS FOR MAKING SENSORY NEURONS” (University of Georgia Research Foundation, Inc., priority 2020, published 2022):

Tests used:
[1] = tested on: SNs differentiated from NCCs replated on day 12; experiment: SN subtype enrichment with growth factors, TRKA/TRKB/TRKC quantified by flow cytometry (FACS) on day 20; assay type: cell-based, human; details: NCCs replated day 12 in SN differentiation media containing GDNF and the indicated growth factor; FACS analysis on day 20; FIG. 7B
Description: FIGS. 7A-7G illustrates strategies for SN subtype enrichment (related to FIGS. 3A-3F). FIG. 7A is a schematic of an initial approach. On day 12 of differentiation, NCCs were replated using SN differentiation media containing GDNF and the indicated growth factors and analyzed by flow cytometry. FIG. 7B is a bar graph showing quantification of SNs differentiated using enrichment media as indicated on 7A. SNs were stained with TRKA, TRKB and TRKC antibodies and quantified by flow cytometry. DAPI was used as viability dye. FIGS. 7C-7F are a series of scatter plots showing identification (7C) of subpopulation of noci- (7D), mechano- (7E), and proprioceptor (7F) enrichment by flow cytometry. Side scatter and forward scatter showing gated areas where each subtype is enriched and the percentages of each subpopulation are shown. FIG. 7G is a bar graph showing NGN2 and NGN1 waves are present during SN differentiation. RNA from SN-biased NCCs was obtained on each indicated day and NGN1 and NGN2 expression was measured by RT-qPCR. In all experiments N>4. Graphs show mean±S.D.
Cells were dissociated with Accutase for 20 min and then washed in Flow buffer: DMEM 2% FBS and 1 mM L-glutamine. Cells were centrifuged at 200 g for 4 min and resuspended in cold PBS, they were counted and diluted to a concentration of 1×10^6 cells/100 μL and incubated for 20 min (CD49d) or 1 h (TRKA, B and C) with conjugated antibody. Cells were then washed twice in Flow buffer, and incubated with DAPI (1:1,000) in 300 μL of Flow buffer for 5 mins. Cells were filtered and transferred to a 96-well plate. Samples were run using a Cytoflex S (Beckman). All subsequent analysis was done using FlowJo.
Contrary to previous reports (Alshawaf, et al., Scientific Reports 8, 603 (2018), Chambers, et al., Nat. Biotechnol. 30, 715-720 (2012), Schrenk-Siemens, et al., Nat. Neurosci. 18, 10-550 16 (2015)), the investigated protocol generates all three SN subtypes (FIG. 1H, 1I). Thus, methods to enrich distinct SN subtypes from bulk cultures were investigated. […]

[2] = tested on: hESC-derived SNs; experiment: Multi-electrode array (MEA) recording of SN firing after incubation with nociceptor agonists; assay type: cell-based, human; details: titrated, incubated for 1 min before data acquisition; 5 min recordings; normalized to untreated control (basal); FIG. 2K
Procedure: Experiments were performed using a Maestro Pro (Axion Biosystems) MEA system. CytoView MEA 96 plates containing 8 embedded electrodes/well were coated with PO/LM/FN 448 and seeded with NCCs (day 6 or 12) or SNs (day 30). Repeated recordings were made every 5 days at 37° C. with a sampling frequency of 12.5 kHz for 5 min. Recordings from at least 6 wells were averaged per reading. Bursts were detected using Inter-Spike Interval (ISI). Capsaicin, WIN 55,212 and Pregnenolone were titrated and incubated for 1 min before data acquisition. Hypoosomotic media was obtained by mixing Sensory neuron media with sterile water in a 45:55 ratio, treatment was done for 1 min.

Molecule	SN subtype enrichment (TRKA, TRKB, TRKC by FACS) [1]	firing rate of SNs (MEA) [2]
BDNF: Brain-derived neurotrophic factor, binds to TRKB; used to promote differentiation of mechanoreceptors	no subtype enrichment	–
Cc1c(C(=O)c2cccc3ccccc23)c2cccc3c2n1[C@H](CN1CCOCC1)CO3 [WIN 55, 212-2]	–	increased firing rate
NGF: Nerve growth factor, binds to TRKA; used to promote differentiation of nociceptors	no subtype enrichment	–
COc1cc(CNC(=O)CCCC/C=C/C(C)C)ccc1O [capsaicin]	–	increased firing rate
CC(=O)[C@H]1CC[C@H]2[C@@H]3CC=C4C[C@@H](O)CC[C@]4(C)[C@H]3CC[C@]12C [pregnenolone]	–	increased firing rate
NT-3: Neurotrophin-3, binds to TRKC; used to promote differentiation of proprioceptors (protein, UniProt P20783 139-257, looked up) Neurotrophin-3: YAEHKSHRGEYSVCDSESLWVTDKSSAIDIRGHQVTVLGEIKTGNSPVKQYFYETRCKEARPVKNGCRGIDDKHWNSQCKTSQTYVRALTSENNKLVGWRWIRIDTSCVCALSRKIGRT	no subtype enrichment	–
